Results from PubChem BioAssay AID1919008 (Molecular Pharmacology Branch, DTP, NCI, 2023).
Several values for one entry are separate records, joined by “and”; a condition that tells them apart may be missing. Equal values may be shown once.

Test system: DMS-114 complex spheroids with HUVEC/MSC, growth % test/control
Test: Anticancer human tumor DMS-114 cell line growth inhibition [AhR];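 also: spheroids exposed to agents for 7 days before readout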;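 as to viability, T/C: 100% = DMSO vehicle control wells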
Settings: for viability, T/C: stronger effect = lower value
Procedure, shortened: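 Agents were dosed in half-log steps down from roughly clinical Cmax, or from 10 microM where Cmax was unknown, alone and with AhR antagonists. Read-out: percent test/control growth of tumor spheroids containing HUVEC and MSC stromal cells.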

[1] = curve of first compound, second compound 0.1 µM
[2] = curve of first compound, second compound 0.316 µM
[3] = curve of first compound, second compound 1 µM
[4] = curve of first compound, second compound 3.16 µM
[5] = curve of first compound, second compound 10 µM
[6] = second compound 0.1 µM, first compound 0.00316 µM
[7] = second compound 0.1 µM, first compound 0.01 µM
[8] = second compound 0.1 µM, first compound 0.0316 µM
[9] = second compound 0.1 µM, first compound 0.1 µM
[10] = second compound 0.316 µM, first compound 0.00316 µM
[11] = second compound 0.316 µM, first compound 0.01 µM
[12] = second compound 0.316 µM, first compound 0.0316 µM
[13] = second compound 0.316 µM, first compound 0.1 µM
[14] = second compound 1 µM, first compound 0.00316 µM
[15] = second compound 1 µM, first compound 0.01 µM
[16] = second compound 1 µM, first compound 0.0316 µM
[17] = second compound 1 µM, first compound 0.1 µM
[18] = second compound 3.16 µM, first compound 0.00316 µM
[19] = second compound 3.16 µM, first compound 0.01 µM
[20] = second compound 3.16 µM, first compound 0.0316 µM
[21] = second compound 3.16 µM, first compound 0.1 µM
[22] = second compound 10 µM, first compound 0.00316 µM
[23] = second compound 10 µM, first compound 0.01 µM
[24] = second compound 10 µM, first compound 0.0316 µM
[25] = second compound 10 µM, first compound 0.1 µM
[26] = second compound 0.1 µM, first compound 0.316 µM
[27] = second compound 0.1 µM, first compound 1 µM
[28] = second compound 0.1 µM, first compound 3.16 µM
[29] = second compound 0.1 µM, first compound 10 µM
[30] = second compound 0.316 µM, first compound 0.316 µM
[31] = second compound 0.316 µM, first compound 1 µM
[32] = second compound 0.316 µM, first compound 3.16 µM
[33] = second compound 0.316 µM, first compound 10 µM
[34] = second compound 1 µM, first compound 0.316 µM
[35] = second compound 1 µM, first compound 1 µM
[36] = second compound 1 µM, first compound 3.16 µM
[37] = second compound 1 µM, first compound 10 µM
[38] = second compound 3.16 µM, first compound 0.316 µM
[39] = second compound 3.16 µM, first compound 1 µM
[40] = second compound 3.16 µM, first compound 3.16 µM
[41] = second compound 3.16 µM, first compound 10 µM
[42] = second compound 10 µM, first compound 0.316 µM
[43] = second compound 10 µM, first compound 1 µM
[44] = second compound 10 µM, first compound 3.16 µM
[45] = second compound 10 µM, first compound 10 µM

SMILES | IC50 [1] [µM] | IC50 [2] [µM] | IC50 [3] [µM] | IC50 [4] [µM] | IC50 [5] [µM] | viability, T/C [8] [%] | viability, T/C [9] [%] | viability, T/C [12] [%] | viability, T/C [13] [%] | viability, T/C [16] [%] | viability, T/C [17] [%] | viability, T/C [20] [%] | viability, T/C [21] [%] | viability, T/C [24] [%] | viability, T/C [25] [%] | viability, T/C [26] [%] | viability, T/C [27] [%] | viability, T/C [30] [%] | viability, T/C [31] [%] | viability, T/C [34] [%] | also measured
CC[C@@]1(O)C(=O)OCc2c1cc1n(c2=O)Cc2cc3c(CN(C)C)c(O)ccc3nc2-1 + Cc1cncc(-c2nc(NCCc3c[nH]c4ccccc34)c3ncn(C(C)C)c3n2)c1 | 0.0236 | 0.0232 | 0.0259 | 0.0219 | < 0.000316 | 41.1 | 16.7 | 37.8 | 17 | 42.1 | 19.5 | 39.8 | 17.8 | 16.7 | 9.82 | – | – | – | – | – | viability, T/C (second compound 0.1 µM, first compound 0.000316 µM): 93.4%; viability, T/C (second compound 0.1 µM, first compound 0.001 µM): 99.2%; viability, T/C [6]: 85.8%; viability, T/C [7]: 75.6%; viability, T/C (second compound 0.316 µM, first compound 0.000316 µM): 93.4%; viability, T/C (second compound 0.316 µM, first compound 0.001 µM): 101%; viability, T/C [10]: 83.8%; viability, T/C [11]: 83.2%; viability, T/C (second compound 1 µM, first compound 0.000316 µM): 97.3%; viability, T/C (second compound 1 µM, first compound 0.001 µM): 112%; viability, T/C [14]: 94.5%; viability, T/C [15]: 86%; viability, T/C (second compound 3.16 µM, first compound 0.000316 µM): 99.7%; viability, T/C (second compound 3.16 µM, first compound 0.001 µM): 94%; viability, T/C [18]: 96.1%; viability, T/C [19]: 71.9%; viability, T/C (second compound 10 µM, first compound 0.000316 µM): 40.1%; viability, T/C (second compound 10 µM, first compound 0.001 µM): 43.7%; viability, T/C [22]: 37.1%; viability, T/C [23]: 27.2%
CC1COCCN1c1cc(C2(S(C)(=N)=O)CC2)nc(-c2ccnc3[nH]ccc23)n1 (configuration not stated) + CC(CO)NC(=O)c1cc(-c2ccc(Cl)cc2)nn(-c2cnn(C)c2)c1=O | 4.22 | 4.93 | 4.93 | 2.12 | 1.78 | 109 | 84.7 | 94.9 | 101 | 112 | 86.6 | 105 | 106 | 103 | 96.1 | 96.7 | 84.6 | 93.4 | 89.5 | 85.8 | viability, T/C [28]: 54.3%; viability, T/C [29]: 36.1%; viability, T/C [32]: 62.2%; viability, T/C [33]: 30.5%; viability, T/C [35]: 91.2%; viability, T/C [36]: 55.6%; viability, T/C [37]: 33.4%; viability, T/C [38]: 93.6%; viability, T/C [39]: 65.4%; viability, T/C [40]: 43%; viability, T/C [41]: 27.1%; viability, T/C [42]: 98.9%; viability, T/C [43]: 61.1%; viability, T/C [44]: 41.3%; viability, T/C [45]: 27.7%
CC1(C)CCC(CN2CCN(c3ccc(C(=O)NS(=O)(=O)c4ccc(NCC5CCOCC5)c([N+](=O)[O-])c4)c(Oc4cnc5[nH]ccc5c4)c3)CC2)=C(c2ccc(Cl)cc2)C1 | – | – | – | – | – | – | – | – | – | – | – | – | – | – | – | – | – | – | – | – | viability, T/C (compound 0.0316 µM): 101% and 99.7% and 98.9%; viability, T/C (compound 0.1 µM): 102% and 97.2% and 99%; viability, T/C (compound 0.316 µM): 92.6% and 103% and 110%; viability, T/C (compound 1 µM): 98.6% and 108% and 117%; viability, T/C (compound 3.16 µM): 113% and 107% and 116%; viability, T/C (compound 10 µM): 107% and 105% and 61.2%; IC50 (curve of compound): > 10 µM
COc1ccc([C@@H](O)c2cc(-c3ncnc4cc(N5CCOCC5)ccc34)c(F)cc2Cl)nn1 + Cc1ccccc1N=Nc1ccc(NC(=O)c2ccnn2C)c(C)c1 | > 10 | > 10 | > 10 | > 10 | > 10 | 92.6 | 106 | 98.1 | 95.7 | 96.6 | 92 | 96.7 | 100 | 94.6 | 94.2 | 114 | 121 | 104 | 104 | 94.6 | viability, T/C [28]: 124%; viability, T/C [29]: 96.6%; viability, T/C [32]: 111%; viability, T/C [33]: 99.8%; viability, T/C [35]: 114%; viability, T/C [36]: 129%; viability, T/C [37]: 97%; viability, T/C [38]: 91.8%; viability, T/C [39]: 103%; viability, T/C [40]: 112%; viability, T/C [41]: 84.4%; viability, T/C [42]: 90.8%; viability, T/C [43]: 91%; viability, T/C [44]: 91.4%; viability, T/C [45]: 53.6%
Nc1ncn(C2CC(O)C(CO)O2)c(=O)n1 (configuration not stated) + Cc1cncc(-c2nc(NCCc3c[nH]c4ccccc34)c3ncn(C(C)C)c3n2)c1 | > 1 | > 1 | > 1 | > 1 | < 0.00316 | 99.5 | 101 | 90.6 | 88 | 81.5 | 94.3 | 86.5 | 81.7 | 44.8 | 45.5 | 77 | 54.8 | 74.3 | 52.3 | 86.4 | viability, T/C [6]: 111%; viability, T/C [7]: 88.5%; viability, T/C [10]: 90.4%; viability, T/C [11]: 93.1%; viability, T/C [14]: 97.8%; viability, T/C [15]: 91.7%; viability, T/C [35]: 62%; viability, T/C [18]: 82.9%; viability, T/C [19]: 86.5%; viability, T/C [38]: 85.2%; viability, T/C [39]: 68.8%; viability, T/C [22]: 31.6%; viability, T/C [23]: 36.9%; viability, T/C [42]: 35.6%; viability, T/C [43]: 37.1%
CC1(C)CCC(CN2CCN(c3ccc(C(=O)NS(=O)(=O)c4ccc(NCC5CCOCC5)c([N+](=O)[O-])c4)c(Oc4cnc5[nH]ccc5c4)c3)CC2)=C(c2ccc(Cl)cc2)C1 + CC(CO)NC(=O)c1cc(-c2ccc(Cl)cc2)nn(-c2cnn(C)c2)c1=O | > 10 | > 10 | > 10 | > 10 | > 10 | 99.3 | 101 | 95.7 | 114 | 93.1 | 92.2 | 101 | 101 | 104 | 93 | 107 | 93.1 | 104 | 87.6 | 94 | viability, T/C [28]: 104%; viability, T/C [29]: 67.2%; viability, T/C [32]: 92.3%; viability, T/C [33]: 73.4%; viability, T/C [35]: 119%; viability, T/C [36]: 102%; viability, T/C [37]: 68.2%; viability, T/C [38]: 91.3%; viability, T/C [39]: 95.8%; viability, T/C [40]: 93%; viability, T/C [41]: 71.3%; viability, T/C [42]: 95.6%; viability, T/C [43]: 106%; viability, T/C [44]: 104%; viability, T/C [45]: 64.7%
